1 compound from patent US12679811B2, “Microcrystalline diketopiperazine compositions and methods” (MannKind Corporation, priority 2013, dated 2026) can be followed below.

The data set can be described thus: Solubility of FDKP as a function of pH. Type of data set: physicochemical.

For the compound `O=C(O)/C=C/C(=O)NCCCCC1NC(=O)C(CCCCNC(=O)/C=C/C(=O)O)NC1=O` (centres unmarked) [FDKP, 3,6-bis(N-fumaryl-4-aminobutyl)-2,5-diketopiperazine], the solubility result was “readily soluble” (at neutral or basic pH) and “low solubility” (in acid).
